31 molecules from patent publication US8183262B2, “Pyridine derivatives as mGluR2 antagonists” (Hoffmann-La Roche Inc., priority 2007, dated 2012) can be followed below.

Usually melting point stands for the temperature of the solid-liquid transition.

Turning to `Cc1cc(-c2cc(C(F)(F)F)nc(-c3nc(-c4ccc(N)nc4)no3)n2)ccc1Cl` [Example 107, 5-{5-[4-(4-Chloro-3-methyl-phenyl)-6-trifluoromethyl-pyrimidin-2-yl]-[1,2,4]oxadiazol-3-yl}-pyridin-2-ylamine], the melting point was 199.5 °C. In the case of `NS(=O)(=O)c1cccc(-c2cccc(-c3nc(-c4ccc(C(F)(F)F)cc4F)cc(C(F)(F)F)n3)c2)c1` [Example 412, 3′-[4-(2-Fluoro-4-trifluoromethyl-phenyl)-6-trifluoromethyl-pyrimidin-2-yl]-biphenyl-3-sulfonic acid amide], the melting point amounted to 224.5 °C.

On to `Nc1ccc(-c2cc(-c3nc(-c4cccc(C(F)(F)F)c4)cc(C(F)(F)F)n3)ccn2)cn1` [Example 141, 4-[4-Trifluoromethyl-6-(3-trifluoromethyl-phenyl)-pyrimidin-2-yl]-[2,3′]bipyridinyl-6′-ylamine], for which the melting point was determined as 196 °C.

With `Cc1cc(-c2ccc(C(F)(F)F)cc2)cc(-c2ccnc(-c3cccc(S(=O)(=O)N4CCSCC4)c3)c2)n1` [Example 347, 6-Methyl-2′-[3-(thiomorpholine-4-sulfonyl)-phenyl]-4-(4-trifluoromethyl-phenyl)-[2,4′]bipyridinyl], the melting point was 156 °C (dec.).

The molecule `Cc1cc(-c2ccc(C(F)(F)F)cc2)nc(-n2cnc(-c3ccc(S(N)(=O)=O)s3)c2)n1` [Example 191, 5-{1-[4-Methyl-6-(4-trifluoromethyl-phenyl)-pyrimidin-2-yl]-1H-imidazol-4-yl}-thiophene-2-sulfonic acid amide] showed a melting point of 277 °C. To `CC(C)(C)NS(=O)(=O)c1cccc(-c2cccc(-c3nc(-c4ccc(C(F)(F)F)cc4)cc(C(F)(F)F)n3)n2)c1` [Example 362, N-tert-Butyl-3-{6-[4-trifluoromethyl-6-(4-trifluoromethyl-phenyl)-pyrimidin-2-yl]-pyridin-2-yl}-benzenesulfonamide] belongs 75 °C; to `O=S(=O)(NC1CC1)c1cccc(-c2cc(-c3nc(-c4ccc(C(F)(F)F)cc4)cc(C(F)(F)F)n3)ccn2)c1` [Example 409, N-Cyclopropyl-3-{4-[4-trifluoromethyl-6-(4-trifluoromethyl-phenyl)-pyrimidin-2-yl]-pyridin-2-yl}-benzenesulfonamide], 195.5 °C; to `Cc1cc(-c2ccc(Cl)c(C)c2)nc(-c2cccc(-c3ccc(S(N)(=O)=O)s3)c2)n1` [Example 380, 5-{3-[4-(4-Chloro-3-methyl-phenyl)-6-methyl-pyrimidin-2-yl]-phenyl}-thiophene-2-sulfonic acid amide], 240 °C. Molecule `CC(C)(C)NS(=O)(=O)c1ccc(-c2cn(-c3cc(-c4ccc(C(F)(F)F)cc4)cc(C(F)(F)F)n3)cn2)s1` [Example 301, 5-{1-[6-Trifluoromethyl-4-(4-trifluoromethyl-phenyl)-pyridin-2-yl]-1H-imidazol-4-yl}-thiophene-2-sulfonic acid tert-butylamide] registered a melting point of over 250 °C.

The molecule `Cc1cc(-c2ccc(C(F)(F)F)cc2)cc(-c2nccc(-c3ccc(N)nc3)n2)n1` [Example 241, 5-{2-[6-Methyl-4-(4-trifluoromethyl-phenyl)-pyridin-2-yl]-pyrimidin-4-yl}-pyridin-2-ylamine] had a melting point of 258 °C. The result for `CCC(=O)NS(=O)(=O)c1cccc(-c2cc(-c3nc(-c4ccc(C(F)(F)F)cc4)cc(C(F)(F)F)n3)ccn2)c1` [Example 374, N-Propionyl-3-{4-[4-trifluoromethyl-6-(4-trifluoromethyl-phenyl)-pyrimidin-2-yl]-pyridin-2-yl}-benzenesulfonamide] reads 144 °C; that for `Cc1cc(-c2ccc(C(F)(F)F)cc2)nc(-c2nc(-c3ccc(S(N)(=O)=O)cc3)no2)n1` [Example 118, 4-{5-[4-Methyl-6-(4-trifluoromethyl-phenyl)-pyrimidin-2-yl]-[1,2,4]oxadiazol-3-yl}-benzenesulfonamide], 326 °C.

For `Cc1cc(-c2ccc(C(F)(F)F)cc2)cc(-c2cccc(-c3csc(NS(=O)(=O)NC(=O)OC(C)(C)C)n3)c2)n1` [Example 344, N-(tert-Butoxycarbonyl)-N′-(4-{3-[6-methyl-4-(4-trifluoromethyl-phenyl)-pyridin-2-yl]-phenyl}-thiazol-2-yl)-sulfamide], the melting point is 152 °C (dec.). The result for `FC(F)(F)c1cc(-c2ccc(Cl)cc2)nc(-n2cnc(-c3ccncc3)c2)n1` [Example 25, 4-(4-Chloro-phenyl)-2-(4-pyridin-4-yl-imidazol-1-yl)-6-trifluoromethyl-pyrimidine] reads 269 °C; that for `NS(=O)(=O)c1ccc(-c2cn(-c3nc(-c4ccc(Cl)c(Cl)c4)cc(C(F)(F)F)n3)cn2)s1` [Example 208, 5-{1-[4-(3,4-Dichloro-phenyl)-6-trifluoromethyl-pyrimidin-2-yl]-1H-imidazol-4-yl}-thiophene-2-sulfonic acid amide], 282 °C (dec.). The result for `NS(=O)(=O)c1cccc(-c2cn(-c3nc(-c4ccc(F)cc4)cc(C(F)(F)F)n3)cn2)c1` [Example 387, 3-{1-[4-(4-Fluoro-phenyl)-6-trifluoromethyl-pyrimidin-2-yl]-1H-imidazol-4-yl}-benzenesulfonamide] reads 260 °C; that for `Cc1cc(-c2cc(C(F)(F)F)nc(-c3ccnc(-c4ccc(S(N)(=O)=O)s4)c3)n2)ccc1Cl` [Example 414, 5-{4-[4-(4-Chloro-3-methyl-phenyl)-6-trifluoromethyl-pyrimidin-2-yl]-pyridin-2-yl}-thiophene-2-sulfonic acid amide], 280 °C; that for `Cc1cc(-c2ccc(C(F)(F)F)cc2)cc(-c2ccnc(-c3cccc(S(=O)(=O)NCCO)c3)c2)n1` [Example 348, N-(2-Hydroxy-ethyl)-3-[6-methyl-4-(4-trifluoromethyl-phenyl)-[2,4′]bipyridinyl-2′-yl]-benzenesulfonamide], 103 °C (dec.). The result for `Cc1cc(-c2ccc(Cl)cc2)nc(-n2cnc(-c3cnc(N)nc3)c2)n1` [Example 45, 5-{1-[4-(4-Chloro-phenyl)-6-methyl-pyrimidin-2-yl]-1H-imidazol-4-yl}-pyrimidin-2-ylamine] reads 264 to 266 °C; that for `Nc1ccc(-c2cn(-c3nc(-c4cccc(C(F)(F)F)c4)cc(C(F)(F)F)n3)cn2)cn1` [Example 53, 5-{1-[4-Trifluoromethyl-6-(3-trifluoromethyl-phenyl)-pyrimidin-2-yl]-1H-imidazol-4-yl}-pyridin-2-ylamine], 262 °C. Molecule `Cc1cc(-c2ccc(C(F)(F)F)cc2)nc(-c2nc(-c3ccc(N)nc3)no2)n1` [Example 127, 5-{5-[4-Methyl-6-(4-trifluoromethyl-phenyl)-pyrimidin-2-yl]-[1,2,4]oxadiazol-3-yl}-pyridin-2-ylamine] displayed a melting point of 216.5 °C. The result for `NS(=O)(=O)c1cccc(-c2cc(-c3nc(-c4ccc(C(F)(F)F)cc4)cc(C(F)(F)F)n3)ccn2)c1` [Example 158, 3-{4-[4-Trifluoromethyl-6-(4-trifluoromethyl-phenyl)-pyrimidin-2-yl]-pyridin-2-yl}-benzenesulfonamide] reads 237 °C.

`CC(C)CN(C)S(=O)(=O)c1cccc(-c2cc(-c3nc(-c4ccc(C(F)(F)F)cc4)cc(C(F)(F)F)n3)ccn2)c1` [Example 403, N-Isobutyl-N-methyl-3-{4-[4-trifluoromethyl-6-(4-trifluoromethyl-phenyl)-pyrimidin-2-yl]-pyridin-2-yl}-benzenesulfonamide] showed a melting point of 144 °C. The result for `NS(=O)(=O)c1ccc(-c2cn(-c3nc(-c4ccc(F)c(F)c4)cc(C(F)(F)F)n3)cn2)s1` [Example 385, 5-{1-[4-(3,4-Difluoro-phenyl)-6-trifluoromethyl-pyrimidin-2-yl]-1H-imidazol-4-yl}-thiophene-2-sulfonic acid amide] reads 228 °C; that for `Cc1cc(-c2ccc(Cl)cc2)cc(-n2cnc(-c3ccc(N)nc3)c2)n1` [Example 80, 5-{1-[4-(4-Chloro-phenyl)-6-methyl-pyridin-2-yl]-1H-imidazol-4-yl}-pyridin-2-ylamine], 230 to 233 °C. The result for `NS(=O)(=O)c1cccc(-c2cn(-c3nc(-c4ccc(C(F)(F)F)cc4)cc(C(F)(F)F)n3)cn2)c1` [Example 160, 3-{1-[4-Trifluoromethyl-6-(4-trifluoromethyl-phenyl)-pyrimidin-2-yl]-1H-imidazol-4-yl}-benzenesulfonamide] reads 198 °C; that for `Cc1cc(-c2ccc(C(F)(F)F)cc2)cc(-c2cccc(-c3cccc(S(=O)(=O)N4CC(O)C4)c3)n2)n1` [Example 428, 1-{3-[6′-Methyl-4′-(4-trifluoromethyl-phenyl)-[2,2′]bipyridinyl-6-yl]-benzenesulfonyl}-azetidin-3-ol], 205 °C; that for `NS(=O)(=O)c1ccc(-c2noc(-c3nc(-c4ccc(C(F)(F)F)cc4)cc(C(F)(F)F)n3)n2)cc1` [Example 15, 4-{5-[4-Trifluoromethyl-6-(4-trifluoromethyl-phenyl)-pyrimidin-2-yl]-[1,2,4]oxadiazol-3-yl}-benzenesulfonamide], 302 °C. Regarding `Cc1cc(-c2ccc(C(F)(F)F)cc2)cc(-c2cccc(-c3cccc(S(=O)(=O)N(C)C)c3)n2)n1` [Example 423, N,N-Dimethyl-3-[6′-methyl-4′-(4-trifluoromethyl-phenyl)-[2,2′]bipyridinyl-6-yl]-benzenesulfonamide], the melting point is 155 °C. On to `Cc1cc(-c2ccc(OC(F)(F)F)cc2)cc(-c2cccc(-c3cccc(S(=O)(=O)NC(C)(C)C)c3)n2)n1` [Example 436, N-tert-Butyl-3-[6′-methyl-4′-(4-trifluoromethoxy-phenyl)-[2,2′]bipyridinyl-6-yl]-benzenesulfonamide], for which the melting point is 148 °C.

Molecule `CCC(=O)NS(=O)(=O)c1ccc(-c2cc(-c3nc(-c4ccc(C(F)(F)F)cc4)cc(C(F)(F)F)n3)ccn2)s1` [Example 375, 5-{4-[4-Trifluoromethyl-6-(4-trifluoromethyl-phenyl)-pyrimidin-2-yl]-pyridin-2-yl}-thiophene-2-sulfonic acid propionyl-amide] had a melting point of 257 °C.
